Measurements: US20100280600A1, “DUAL DRUG STENT” (priority 2009, published 2010)

Columns and labels:
[1] = Cumulative in vivo drug release from reservoir dual drug eluting stent; conditions: 30 days; compared to cilostazol
Text: Referring to FIG. 29, there is illustrated the cumulative in vivo drug release percentages for each drug over a thirty day period. Curve 2902 represents the profile for cilostazol while curve 2904 represents the profile for sirolimus. FIG. 30 is a graphical representation of the amount of each drug, in micrograms, released in vivo. Curve 3002 represents the profile for cilostazol while curve 3004 represents the profile for sirolimus. The curves in the figures illustrate that both the drugs elute independently of each other with minimal or substantially no interaction. […] Since the amount of drug (by weight) is different for the drugs in their respective reservoirs, the total amount of drug released at thirty (30) days was higher for sirolimus as compared to cilostazol.

[2] = Porcine drug elution PK study of dual drug eluting coating; type: in vivo; conditions: after 8 days of implantation, FIG. 11 stent (sirolimus + cilostazol in one EVA/BMA layer, 100 μg BMA overcoat)
Text: Another critical parameter for the performance of the thrombus resistance of a device coated with cilostazol is the duration of the drug release from the coating. This is of particular significance in the two weeks after device implantation. In the porcine drug elution PK studies of the dual drug eluting coating, both cilostazol and sirolius were slowly released from the coating, resulting in a sustained drug release profile. The purpose of the porcine PK study is to assess the local pharmacokinetics of a drug eluting stent at a given implantation time. Normally three stents are implanted in three different coronary arteries in a pig for a given time point and then retrieved for total drug recovery analysis. The stents are retrieved at predetermined time points; namely, 1, 3 and 8 days. The stents are extracted and the total amount of drug remaining on the stents is determined by analysis utilizing HPLC (high performance liquid chromatography) for total drug amount. The difference between the original amount of drug on the stent and the amount of drug retrieved at a given time represents the amount of drug released in that period. The continuous release of drug into surrounding arterial tissue is what prevents the neointimal growth and restenosis in the coronary artery. A normal plot represents the percentage of total drug released (%, y-axis) vs. time of implantation (day, x-axis). […]

[3] = In vitro release kinetics of sirolimus and cilostazol from coated stents; type: physicochemical

total amount of drug released (by weight) [1]	Structure (SMILES)	drug remained in the drug coating [2] [%]	in vitro drug release rate ([3]; 200 μg BMA diffusion overcoat (FIG. 4) versus 100 μg (FIG. 6))	in vitro release ([3]; FIG. 11 stent (sirolimus + cilostazol in one EVA/BMA layer, 100 μg BMA overcoat), FIG. 10) [%]
higher	CO[C@H]1C[C@@H]2CC[C@@H](C)[C@@](O)(O2)C(=O)C(=O)N2CCCC[C@H]2C(=O)O[C@H]([C@H](C)C[C@@H]2CC[C@@H](O)[C@H](OC)C2)CC(=O)[C@H](C)/C=C(\C)[C@@H](O)[C@@H](OC)C(=O)[C@H](C)C[C@H](C)/C=C/C=C/C=C/1C [rapamycin]	~80		
	O=C1CCc2cc(OCCCCc3nnnn3C3CCCCC3)ccc2N1 [cilostazol, 6[4-(1-cyclohexyl-1H-tetrazol-5-yl)-butoxy]-3,4-dihydro-2-(1H)-quinolinone]	~80	comparatively slower	~35
